*1 amine or outer side, *2 acyl side, *3 side chain or, on linkers, in order; H or OH if unused. Where a SMILES comes first, the peptide text is derived from it. Bridges are numbered along the chain shown (N, C = ends). [ ]: non-standard residue; d: D form. The star is where a group is joined. hPhe(3,5-F2-4-CF3) = N[C@@H](CCc1cc(F)c(C(F)(F)F)c(F)c1)C(=O)O; hPhe(3-Cl-4-CF3) = N[C@@H](CCc1ccc(C(F)(F)F)c(Cl)c1)C(=O)O; NPrPhe(4-CF3) = CCCN[C@@H](Cc1ccc(C(F)(F)F)cc1)C(=O)O; NMeAbu(4,4,4-F3) = CN[C@@H](CC(F)(F)F)C(=O)O; NMeGly(cPent) = CN[C@H](C(=O)O)C1CCCC1; Ac4c(3,3-F2) = NC1(C(=O)O)CC(F)(F)C1; X11 = CCC[C@](C)(N[*:1])C(=O)[*:2]; αMeCha = C[C@](N)(CC1CCCCC1)C(=O)O; αMeI = CC[C@H](C)[C@](C)(N)C(=O)O; Gly(N-propargyl) = C#CCNCC(=O)O; NMeD = CN[C@@H](CC(=O)O)C(=O)O; Ac4c(3-oxa) = NC1(C(=O)O)COC1; NMeL = CN[C@@H](CC(C)C)C(=O)O; X50 = O=C(CN(CCF)[*:1])[*:2]; Iva = CC[C@](C)(N)C(=O)O; Morpholide = C1CN(*)CCO1; NAllylGly = C=CCNCC(=O)O; Ac5c = NC1(C(=O)O)CCCC1; Sar = CNCC(=O)O
Tests used:
[1] = biological target: GDP-bound HRAS wild-type protein (Homo sapiens, UniProt P01112); test: Binding to HRAS by surface plasmon resonance (SPR), Single Cycle Kinetics; settings: SPR, GDP-bound HRAS wild-type protein vs GDP-bound KRAS wild-type protein
Chain of GDP-bound HRAS wild-type protein (P01112 whole entry): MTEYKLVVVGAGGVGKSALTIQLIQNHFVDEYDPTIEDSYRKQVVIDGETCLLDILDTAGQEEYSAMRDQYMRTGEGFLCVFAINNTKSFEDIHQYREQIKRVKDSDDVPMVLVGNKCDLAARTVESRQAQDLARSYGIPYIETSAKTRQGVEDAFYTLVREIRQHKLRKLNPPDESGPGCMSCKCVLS

[2] = biological target: GDP-bound KRAS wild-type protein (Homo sapiens, UniProt P01116); test: Binding to KRAS by surface plasmon resonance (SPR), Single Cycle Kinetics; settings: SPR Single Cycle Kinetics, GDP-bound KRAS wild-type protein, 1:1 binding model; read-out: KRAS KD
Chain of GDP-bound KRAS wild-type protein (P01116 whole entry): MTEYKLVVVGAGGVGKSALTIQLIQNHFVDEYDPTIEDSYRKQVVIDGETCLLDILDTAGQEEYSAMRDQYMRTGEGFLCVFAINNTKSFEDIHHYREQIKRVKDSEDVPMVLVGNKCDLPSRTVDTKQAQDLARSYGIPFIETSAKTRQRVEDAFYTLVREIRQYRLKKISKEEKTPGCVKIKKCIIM

[3] = biological target: GDP-bound NRAS wild-type protein (Homo sapiens, UniProt P01111); test: Binding to NRAS by surface plasmon resonance (SPR), Single Cycle Kinetics; settings: SPR, GDP-bound NRAS wild-type protein vs GDP-bound KRAS wild-type protein
Chain of GDP-bound NRAS wild-type protein (P01111 whole entry): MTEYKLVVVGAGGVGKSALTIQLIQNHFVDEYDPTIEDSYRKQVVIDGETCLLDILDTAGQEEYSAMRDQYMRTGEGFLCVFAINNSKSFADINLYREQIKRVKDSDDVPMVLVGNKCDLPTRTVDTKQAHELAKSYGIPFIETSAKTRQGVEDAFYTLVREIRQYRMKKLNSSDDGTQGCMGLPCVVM

| Structure (SMILES) | HRAS/KRAS (ratio of KD value with respect to HRAS to KD value with respect to KRAS) [1] | Kd [2] [nM] | NRAS/KRAS (ratio of KD value with respect to NRAS to KD value with respect to KRAS) [3] |
| --- | --- | --- | --- |
| C=CCN1CC(=O)N(C)CC(=O)N(CCC)[C@@H](Cc2ccc(C(F)(F)F)cc2)C(=O)N(C)CC(=O)N[C@@H](CCc2ccc(C(F)(F)F)c(Cl)c2)C(=O)N2CCC[C@H]2C(=O)NC2(CCCC2)C(=O)N(C)[C@@H](C2CCCC2)C(=O)N(C)[C@H](C(=O)N2CCOCC2)CC(=O)N(C)[C@@H](CC(C)C)C(=O)N[C@@H]([C@@H](C)CC)C1=O [PP0749] ([NMeL]I[NAllylGly][Sar][NPrPhe(4-CF3)][Sar][hPhe(3-Cl-4-CF3)]P[Ac5c][NMeGly(cPent)][NMeD]-Morpholide; lactam N-11) | C (A compound having a KD ratio of 0.1 or more and less than 3 is denoted as C) | 0.59 | B (a compound having 3 or more and less than 10 is denoted as B) |
| C#CCN1CC(=O)N(C)CC(=O)N(CCC)[C@@H](Cc2ccc(C(F)(F)F)cc2)C(=O)N(C)CC(=O)N[C@@H](CCc2ccc(C(F)(F)F)c(Cl)c2)C(=O)N2CCC[C@H]2C(=O)NC2(CCCC2)C(=O)N(C)[C@@H](C2CCCC2)C(=O)N(C)[C@H](C(=O)N2CCOCC2)CC(=O)N(C)[C@@H](CC(C)C)C(=O)N[C@@H]([C@@H](C)CC)C1=O [PP0750] ([NMeL]I[Gly(N-propargyl)][Sar][NPrPhe(4-CF3)][Sar][hPhe(3-Cl-4-CF3)]P[Ac5c][NMeGly(cPent)][NMeD]-Morpholide; lactam N-11) | C (A compound having a KD ratio of 0.1 or more and less than 3 is denoted as C) | 0.37 | B (a compound having 3 or more and less than 10 is denoted as B) |
| CCCN1C(=O)CN(C)C(=O)CN(CCF)C(=O)[C@H]([C@@H](C)CC)NC(=O)[C@H](CC(C)C)N(C)C(=O)C[C@@H](C(=O)N2CCOCC2)N(C)C(=O)[C@H](C2CCCC2)N(C)C(=O)C2(CCCC2)NC(=O)[C@@H]2CCCN2C(=O)[C@H](CCc2ccc(C(F)(F)F)c(Cl)c2)NC(=O)CN(C)C(=O)[C@@H]1Cc1ccc(C(F)(F)F)cc1 [PP0751] ([NMeL]I[X50][Sar][NPrPhe(4-CF3)][Sar][hPhe(3-Cl-4-CF3)]P[Ac5c][NMeGly(cPent)][NMeD]-Morpholide; lactam N-11) | C (A compound having a KD ratio of 0.1 or more and less than 3 is denoted as C) | 0.52 | B (a compound having 3 or more and less than 10 is denoted as B) |
| CCCN1C(=O)CN(C)C(=O)CN(C)C(=O)[C@H]([C@@H](C)CC)NC(=O)[C@H](CC(C)C)N(C)C(=O)C[C@@H](C(=O)N2CCOCC2)N(C)C(=O)[C@H](C2CCCC2)N(C)C(=O)C2(CCCC2)NC(=O)[C@@H]2CCCN2C(=O)[C@H](CCc2cc(F)c(C(F)(F)F)c(F)c2)NC(=O)CN(C)C(=O)[C@@H]1Cc1ccc(C(F)(F)F)cc1 [PP0753] ([NMeL]I[Sar][Sar][NPrPhe(4-CF3)][Sar][hPhe(3,5-F2-4-CF3)]P[Ac5c][NMeGly(cPent)][NMeD]-Morpholide; lactam N-11) | C (A compound having a KD ratio of 0.1 or more and less than 3 is denoted as C) | 0.14 | B (a compound having 3 or more and less than 10 is denoted as B) |
| CCCN1C(=O)CN(C)C(=O)CN(C)C(=O)[C@H]([C@@H](C)CC)NC(=O)[C@H](CC(C)C)N(C)C(=O)C[C@@H](C(=O)N2CCOCC2)N(C)C(=O)[C@H](C2CCCC2)N(C)C(=O)[C@](C)(CC)NC(=O)[C@@H]2CCCN2C(=O)[C@H](CCc2cc(F)c(C(F)(F)F)c(F)c2)NC(=O)CN(C)C(=O)[C@@H]1Cc1ccc(C(F)(F)F)cc1 [PP0754] ([NMeL]I[Sar][Sar][NPrPhe(4-CF3)][Sar][hPhe(3,5-F2-4-CF3)]P[Iva][NMeGly(cPent)][NMeD]-Morpholide; lactam N-11) | C (A compound having a KD ratio of 0.1 or more and less than 3 is denoted as C) | 0.49 | B (a compound having 3 or more and less than 10 is denoted as B) |
| CCCN1C(=O)CN(C)C(=O)CN(C)C(=O)[C@H]([C@@H](C)CC)NC(=O)[C@H](CC(C)C)N(C)C(=O)C[C@@H](C(=O)N2CCOCC2)N(C)C(=O)[C@H](C2CCCC2)N(C)C(=O)[C@](C)([C@@H](C)CC)NC(=O)[C@@H]2CCCN2C(=O)[C@H](CCc2cc(F)c(C(F)(F)F)c(F)c2)NC(=O)CN(C)C(=O)[C@@H]1Cc1ccc(C(F)(F)F)cc1 [PP0757] ([NMeL]I[Sar][Sar][NPrPhe(4-CF3)][Sar][hPhe(3,5-F2-4-CF3)]P[αMeI][NMeGly(cPent)][NMeD]-Morpholide; lactam N-11) | C (A compound having a KD ratio of 0.1 or more and less than 3 is denoted as C) | 4 | B (a compound having 3 or more and less than 10 is denoted as B) |
| CCCN1C(=O)CN(C)C(=O)CN(C)C(=O)[C@H]([C@@H](C)CC)NC(=O)[C@H](CC(C)C)N(C)C(=O)C[C@@H](C(=O)N2CCOCC2)N(C)C(=O)[C@H](C2CCCC2)N(C)C(=O)[C@](C)(CCC)NC(=O)[C@@H]2CCCN2C(=O)[C@H](CCc2cc(F)c(C(F)(F)F)c(F)c2)NC(=O)CN(C)C(=O)[C@@H]1Cc1ccc(C(F)(F)F)cc1 [PP0758] ([NMeL]I[Sar][Sar][NPrPhe(4-CF3)][Sar][hPhe(3,5-F2-4-CF3)]P[X11][NMeGly(cPent)][NMeD]-Morpholide; lactam N-11) | C (A compound having a KD ratio of 0.1 or more and less than 3 is denoted as C) | 1.6 | B (a compound having 3 or more and less than 10 is denoted as B) |
| CCCN1C(=O)CN(C)C(=O)CN(C)C(=O)[C@H]([C@@H](C)CC)NC(=O)[C@H](CC(C)C)N(C)C(=O)C[C@@H](C(=O)N2CCOCC2)N(C)C(=O)[C@H](C2CCCC2)N(C)C(=O)[C@](C)(CC2CCCCC2)NC(=O)[C@@H]2CCCN2C(=O)[C@H](CCc2cc(F)c(C(F)(F)F)c(F)c2)NC(=O)CN(C)C(=O)[C@@H]1Cc1ccc(C(F)(F)F)cc1 [PP0760] ([NMeL]I[Sar][Sar][NPrPhe(4-CF3)][Sar][hPhe(3,5-F2-4-CF3)]P[αMeCha][NMeGly(cPent)][NMeD]-Morpholide; lactam N-11) | C (A compound having a KD ratio of 0.1 or more and less than 3 is denoted as C) | 16 | B (a compound having 3 or more and less than 10 is denoted as B) |
| CCCN1C(=O)CN(C)C(=O)CN(C)C(=O)[C@H]([C@@H](C)CC)NC(=O)[C@H](CC(C)C)N(C)C(=O)C[C@@H](C(=O)N2CCOCC2)N(C)C(=O)[C@H](C2CCCC2)N(C)C(=O)C2(COC2)NC(=O)[C@@H]2CCCN2C(=O)[C@H](CCc2cc(F)c(C(F)(F)F)c(F)c2)NC(=O)CN(C)C(=O)[C@@H]1Cc1ccc(C(F)(F)F)cc1 [PP0765] ([NMeL]I[Sar][Sar][NPrPhe(4-CF3)][Sar][hPhe(3,5-F2-4-CF3)]P[Ac4c(3-oxa)][NMeGly(cPent)][NMeD]-Morpholide; lactam N-11) | C (A compound having a KD ratio of 0.1 or more and less than 3 is denoted as C) | 0.31 | B (a compound having 3 or more and less than 10 is denoted as B) |
| CCCN1C(=O)CN(C)C(=O)CN(C)C(=O)[C@H]([C@@H](C)CC)NC(=O)[C@H](CC(C)C)N(C)C(=O)C[C@@H](C(=O)N2CCOCC2)N(C)C(=O)[C@H](C2CCCC2)N(C)C(=O)C2(CC(F)(F)C2)NC(=O)[C@@H]2CCCN2C(=O)[C@H](CCc2cc(F)c(C(F)(F)F)c(F)c2)NC(=O)CN(C)C(=O)[C@@H]1Cc1ccc(C(F)(F)F)cc1 [PP0766] ([NMeL]I[Sar][Sar][NPrPhe(4-CF3)][Sar][hPhe(3,5-F2-4-CF3)]P[Ac4c(3,3-F2)][NMeGly(cPent)][NMeD]-Morpholide; lactam N-11) | B (a compound having 3 or more and less than 10 is denoted as B) | 0.096 | B (a compound having 3 or more and less than 10 is denoted as B) |
| CCCN1C(=O)CN(C)C(=O)CN(C)C(=O)[C@H]([C@@H](C)CC)NC(=O)[C@H](CC(C)C)N(C)C(=O)C[C@@H](C(=O)N2CCOCC2)N(C)C(=O)[C@H](CC(F)(F)F)N(C)C(=O)C2(CCCC2)NC(=O)[C@@H]2CCCN2C(=O)[C@H](CCc2cc(F)c(C(F)(F)F)c(F)c2)NC(=O)CN(C)C(=O)[C@@H]1Cc1ccc(C(F)(F)F)cc1 [PP0767] ([NMeL]I[Sar][Sar][NPrPhe(4-CF3)][Sar][hPhe(3,5-F2-4-CF3)]P[Ac5c][NMeAbu(4,4,4-F3)][NMeD]-Morpholide; lactam N-11) | C (A compound having a KD ratio of 0.1 or more and less than 3 is denoted as C) | 1.9 | B (a compound having 3 or more and less than 10 is denoted as B) |
